Laboratory results taken from ChEMBL document CHEMBL5042503, “"Clickable" Albumin Binders for Modulating the Tumor Uptake of Targeted Radiopharmaceuticals” (J Med Chem, 2022).

What was measured:
[1] = biological target: T1, Albumin (Homo sapiens, UniProt P02768); assay: Binding affinity to human serum albumin assessed as dissociation constant and measured after 5 mins by fluorescence based competition assay
[2] = biological target: T1, Albumin; assay: Binding affinity to human serum albumin assessed as dissociation constant and measured after 5 mins by MST assay
[3] = biological target: T1, Albumin; assay: Binding affinity to human serum albumin assessed as dissociation constant by isothermal titration calorimetry
[4] = biological target: Somatostatin receptor type 2 (Mus musculus) (UniProt P30875); assay: Binding affinity to mouse SST2 expressed in mouse pheochromocytoma cells assessed as maximum binding capacity for 1 hr by Nanodrop spectrophotometric analysis; format: cell-based; conditions: Pheochromocytoma cell
[5] = Lipophilicity, logD of compound at pH 7.4 under shaking condition by HPLC analysis; format: physicochemical; conditions: buffer
[6] = biological target: T1, Albumin; assay: Binding affinity to human serum albumin assessed as dissociation constant using N-alpha-(6-FAM)-N-epsilon-(4-Iodophenylbutanoyl)-D-lysine as substrate and measured after 5 mins by fluorescence based competition assay

T1 sequence (P02768 whole entry): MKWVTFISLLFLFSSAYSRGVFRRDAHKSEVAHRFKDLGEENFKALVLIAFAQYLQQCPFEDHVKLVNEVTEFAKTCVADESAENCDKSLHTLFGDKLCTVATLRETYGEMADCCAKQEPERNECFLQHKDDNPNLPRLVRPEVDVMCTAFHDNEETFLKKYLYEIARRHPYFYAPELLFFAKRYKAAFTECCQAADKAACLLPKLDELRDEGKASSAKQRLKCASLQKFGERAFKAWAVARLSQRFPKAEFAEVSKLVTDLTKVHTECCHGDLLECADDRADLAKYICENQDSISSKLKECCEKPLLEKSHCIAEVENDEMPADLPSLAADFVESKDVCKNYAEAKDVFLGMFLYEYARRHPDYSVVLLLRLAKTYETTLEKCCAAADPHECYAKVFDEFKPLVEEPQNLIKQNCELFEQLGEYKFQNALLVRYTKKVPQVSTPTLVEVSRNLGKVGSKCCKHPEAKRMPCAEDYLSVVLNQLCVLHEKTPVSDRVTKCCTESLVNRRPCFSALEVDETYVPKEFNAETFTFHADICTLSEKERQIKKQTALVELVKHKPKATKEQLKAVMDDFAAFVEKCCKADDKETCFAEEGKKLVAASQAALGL
Sequence of Somatostatin receptor type 2 (Mus musculus) (P30875 whole entry): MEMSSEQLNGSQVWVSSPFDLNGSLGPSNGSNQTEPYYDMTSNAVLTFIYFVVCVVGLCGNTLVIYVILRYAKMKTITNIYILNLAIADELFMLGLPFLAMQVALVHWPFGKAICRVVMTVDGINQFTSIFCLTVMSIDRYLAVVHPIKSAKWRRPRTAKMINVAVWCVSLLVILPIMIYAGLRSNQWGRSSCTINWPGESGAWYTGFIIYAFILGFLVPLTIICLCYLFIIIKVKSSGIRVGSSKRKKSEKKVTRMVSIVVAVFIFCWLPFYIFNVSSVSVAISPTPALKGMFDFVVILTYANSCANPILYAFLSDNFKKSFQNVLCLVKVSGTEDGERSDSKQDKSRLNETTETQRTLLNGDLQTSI

Compound | Kd [1] [µM] | further results
[64Cu]Cu-DOTA-TATE | – | Bmax [4]: 779 fmol/mg
COC(=O)[C@H](CCCCNC(=O)CCCc1ccc(I)cc1)NC(C)=O | 110 | –
CC(C)Cc1ccc(C(C)C(=O)NCCCC[C@H](NC(=O)c2ccc(N=[N+]=[N-])cc2)C(=O)O)cc1 (stereo not given in full) | 4 | –
NC(=O)[C@H](CC(=O)O)NC(=O)CCCc1ccc(I)cc1 | 100 | –
CC(=O)N[C@@H](CCCCNC(=O)CCCc1ccc(I)cc1)C(N)=O | 70 | –
NC(=O)[C@H](CCC(=O)O)NC(=O)CCCc1ccc(I)cc1 | 80 | –
[64Cu]Cu-NODAGA-TATE | – | Bmax [4]: 383 fmol/mg
[N-]=[N+]=Nc1ccc(C(=O)N[C@@H](CCCCNC(=O)CCCc2ccc(I)cc2)C(N)=O)cc1 | – | logD [5]: 3.13
[N-]=[N+]=Nc1ccc(C(=O)N[C@@H](CCCCNC(=O)CCCc2ccc(I)cc2)C(=O)O)cc1 | 0.36 | logD [5]: 1.75
CC(=O)N[C@@H](CCCCNC(=O)CCCc1ccc(I)cc1)C(=O)O | 3.2 | Kd [3]: 9 µM
O=C(CCCc1ccc(I)cc1)NCCCC[C@@H](NC(=O)c1ccc(C(=O)O)c(-c2c3ccc(=O)cc-3oc3cc(O)ccc23)c1)C(=O)O | – | Kd [6]: 0.23 µM
[N-]=[N+]=NCCCCC(=O)N[C@H](CCCCNC(=O)CCCc1ccc(I)cc1)C(=O)O | 8 | –
C#CCCC(=O)N[C@H](CCCCNC(=O)CCCc1ccc(I)cc1)C(=O)O | 7.3 | –

The next lines start with results.

Kd [1] [µM] | Compound | further results
7 | CC(=O)N[C@H](CCCCNC(=O)CCCc1ccc(I)cc1)C(=O)O | Kd [2]: 8 µM; Kd [3]: 3.2 µM
6 | [N-]=[N+]=NCCCCC(=O)N[C@@H](CCCCNC(=O)CCCc1ccc(I)cc1)C(=O)O | –
26 | [N-]=[N+]=Nc1ccc(C(=O)N[C@@H](CCCCNC(=O)CCCc2ccc(F)cc2)C(=O)O)cc1 | –
3 | Cc1ccc(CCCC(=O)NCCCC[C@H](NC(=O)c2ccc(N=[N+]=[N-])cc2)C(=O)O)cc1 | –
3.5 | [N-]=[N+]=Nc1ccc(C(=O)N[C@@H](CCCCNC(=O)CCCc2ccc(Cl)cc2)C(=O)O)cc1 | –
1.2 | [N-]=[N+]=Nc1ccc(C(=O)N[C@H](CCCCNC(=O)CCCc2ccc(I)cc2)C(=O)O)cc1 | Kd [2]: 2.6 µM
36 | [N-]=[N+]=Nc1ccc(C(=O)N[C@@H](CCCCNC(=O)CCCc2ccccc2)C(=O)O)cc1 | –
4.1 | [N-]=[N+]=Nc1ccc(C(=O)N[C@@H](CCCCNC(=O)CCCc2ccc(C(F)(F)F)cc2)C(=O)O)cc1 | –
4 | O=C(CCCc1ccc(I)cc1)NCCCC[C@H](C(=O)O)n1cc(-c2ccccc2)nn1 | –
2 | [N-]=[N+]=Nc1ccc(C(=O)N[C@@H](CCCCNC(=O)CCCc2ccc(Br)cc2)C(=O)O)cc1 | –
0.34 | C#Cc1ccc(C(=O)N[C@@H](CCCCNC(=O)CCCc2ccc(I)cc2)C(=O)O)cc1 | –
8 | O=C(O)CN1CCN(CC(=O)O)CCN(C(CCC(=O)N[C@@H](CCCCNC(=O)CCCc2ccc(I)cc2)C(=O)O)C(=O)O)CC1 (stereo not given in full) | –
